Common to all, as to experiment: CXCR6 receptor antagonists, dose response, cell-based, beta-arrestin, DiscoveRx, APJ panel, uHTS hits (AID 624129)
In test [1] the target is Beta-galactosidase (Escherichia coli) (UniProt Q8VNN2). The following applies: CXCR6 beta-arrestin (DiscoveRx) antagonist cell assay, b-galactosidase.
The target of test [2] is Apelin receptor (Homo sapiens) (UniProt P35414). The conditions noted are these: CXCR6 beta-arrestin (DiscoveRx) antagonist cell assay, APJ.
For test [3], the target named is C-X-C chemokine receptor type 6 (Homo sapiens) (UniProt O00574). The following applies: CXCR6 beta-arrestin (DiscoveRx) antagonist cell assay; for inhibition: CXCR6, run 1, dose range 2, at 80 µM (top of the series).
Test [4] deals with C-C chemokine receptor type 6 (Homo sapiens) (UniProt P51684). The following applies: CXCR6 beta-arrestin (DiscoveRx) antagonist cell assay.
[5] abbreviates: dose range 1, mean IC50 across replicates.
[6] abbreviates: CXCR6, dose range 1, mean IC50 across replicates.
Setting [7] is: CCR6, dose range 1, mean IC50 across replicates.

As usually defined, the IC50 is the concentration that gives 50% inhibition. A word on the inhibition: it is the drop in the measured response relative to a control, in per cent.

Activity calls are given as the source filed them. How the calls were made is not given here.

Chain of C-X-C chemokine receptor type 6 (Homo sapiens) (O00574 whole entry, looked up): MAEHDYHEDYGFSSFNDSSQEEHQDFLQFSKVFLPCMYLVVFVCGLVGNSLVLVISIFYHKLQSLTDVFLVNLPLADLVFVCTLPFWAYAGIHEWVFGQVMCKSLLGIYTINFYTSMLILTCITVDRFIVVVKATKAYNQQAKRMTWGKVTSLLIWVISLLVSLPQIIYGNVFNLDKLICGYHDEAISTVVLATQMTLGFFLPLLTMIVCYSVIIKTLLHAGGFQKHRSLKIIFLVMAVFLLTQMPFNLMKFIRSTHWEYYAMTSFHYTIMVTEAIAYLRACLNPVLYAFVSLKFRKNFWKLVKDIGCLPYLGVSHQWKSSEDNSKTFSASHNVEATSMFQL
Chain of Beta-galactosidase (Escherichia coli) (Q8VNN2 whole entry, looked up): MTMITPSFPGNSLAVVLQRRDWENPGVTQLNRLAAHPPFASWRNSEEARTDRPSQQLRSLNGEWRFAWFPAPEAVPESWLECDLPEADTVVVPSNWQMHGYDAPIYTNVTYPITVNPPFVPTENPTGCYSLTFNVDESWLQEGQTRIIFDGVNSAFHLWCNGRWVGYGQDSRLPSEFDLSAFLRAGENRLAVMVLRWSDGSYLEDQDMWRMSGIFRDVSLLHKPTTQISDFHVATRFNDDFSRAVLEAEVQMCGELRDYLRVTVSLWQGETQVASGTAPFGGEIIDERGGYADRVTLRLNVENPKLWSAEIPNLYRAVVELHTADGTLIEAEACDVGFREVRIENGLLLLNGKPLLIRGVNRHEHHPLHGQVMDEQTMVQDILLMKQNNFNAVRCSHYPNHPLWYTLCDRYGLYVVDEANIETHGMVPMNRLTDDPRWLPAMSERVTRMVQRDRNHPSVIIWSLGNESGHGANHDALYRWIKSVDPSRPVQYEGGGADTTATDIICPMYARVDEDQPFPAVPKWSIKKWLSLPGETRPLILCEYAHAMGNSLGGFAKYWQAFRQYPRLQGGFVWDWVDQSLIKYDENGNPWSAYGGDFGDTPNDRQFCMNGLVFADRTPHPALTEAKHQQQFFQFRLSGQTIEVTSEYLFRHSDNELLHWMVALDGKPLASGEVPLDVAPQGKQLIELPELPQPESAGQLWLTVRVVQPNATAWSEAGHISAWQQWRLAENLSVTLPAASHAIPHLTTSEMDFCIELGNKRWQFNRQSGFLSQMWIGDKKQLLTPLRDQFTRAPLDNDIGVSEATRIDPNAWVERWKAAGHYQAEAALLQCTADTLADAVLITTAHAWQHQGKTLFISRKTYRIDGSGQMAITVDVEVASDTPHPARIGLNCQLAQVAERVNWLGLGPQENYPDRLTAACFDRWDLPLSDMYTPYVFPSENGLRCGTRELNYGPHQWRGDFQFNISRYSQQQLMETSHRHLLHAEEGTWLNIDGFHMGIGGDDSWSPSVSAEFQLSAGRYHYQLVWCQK

As to `COC(=O)[C@@H]1[C@@H](C#N)C2(c3ccccc3-c3ccccc32)N(c2ccc(Cl)cc2)N1C#N`, the IC50 in test [1] (dose range 1) is > 80 µM (inactive); in test [1] (setting [5]), more than 80 µM; in test [2] (setting [5]), more than 80 µM; in test [2] (run 2, dose range 1) it was more than 80 µM; in test [2] (run 3, dose range 1), more than 80 µM; in test [3] (CXCR6, dose range 1), > 80 µM (inactive). In addition, the IC50 was more than 80 µM in test [3] (setting [6]); more than 80 µM in test [3] (CXCR6, run 2, dose range 1); more than 80 µM in test [4] (setting [7]); more than 80 µM in test [4] (CCR6, run 2, dose range 1). For the same molecule, the inhibition in test [3] came to 11.1%.

Take `CCN(CC)CC(C)(C)C(=O)/C=C/c1ccc(/C=C/C(=O)C(C)(C)CN(CC)CC)cc1`: the IC50 was > 80 µM (inactive) in test [1] (dose range 1); more than 80 µM in test [1] (setting [5]); 4.46 µM in test [2] (dose range 1); 4.05 µM in test [2] (setting [5]); 3.91 µM in test [2] (run 2, dose range 1); 3.78 µM in test [2] (run 3, dose range 1). In addition, the concentration for half-maximal inhibition (IC50) in test [3] (CXCR6, dose range 1) was 3.11 µM; in test [3] (setting [6]) it was 3.27 µM; in test [3] (CXCR6, run 1, dose range 2), 3.64 µM; in test [3] (CXCR6, run 2, dose range 1) it was 2.99 µM; in test [3] (CXCR6, run 2, dose range 2), 3.35 µM; in test [4] (CCR6, dose range 1) it was 2.76 µM. In addition, the IC50 in test [4] (setting [7]) was 2.87 µM; in test [4] (CCR6, run 2, dose range 1) it was 2.98 µM.

As to `CCOC(=O)c1c(SCCN2CCCCC2)n(-c2ccccc2)c(=S)n(-c2ccccc2)c1=O`, the IC50 in test [1] (dose range 1) was > 80 µM (inactive); in test [1] (setting [5]), more than 80 µM; in test [2] (dose range 1), 5.99 µM; in test [2] (setting [5]) it was 6.77 µM; in test [2] (run 2, dose range 1), 7.04 µM; in test [2] (run 3, dose range 1), 7.28 µM. The IC50 in test [3] (CXCR6, dose range 1) is 11.1 µM; in test [3] (setting [6]) it was 8.58 µM; in test [3] (CXCR6, run 2, dose range 1), 6.03 µM; in test [4] (CCR6, dose range 1) it was 4.56 µM; in test [4] (setting [7]), 5.9 µM; in test [4] (CCR6, run 2, dose range 1), 7.23 µM. Also, the inhibition in test [3] turned out to be 130%.

As to `CS(=O)(=O)c1ccc(C(=O)OCc2nnc(-c3ccccc3)o2)cc1[N+](=O)[O-]`, the IC50 in test [1] (dose range 1) is > 80 µM (inactive); in test [1] (setting [5]), more than 80 µM; in test [2] (dose range 1), 4.43 µM; in test [2] (setting [5]), 3.86 µM; in test [2] (run 2, dose range 1), 3.23 µM; in test [2] (run 3, dose range 1), 3.93 µM. Moreover, the IC50 is 3.8 µM in test [3] (CXCR6, dose range 1); 3.17 µM in test [3] (setting [6]); 3.23 µM in test [3] (CXCR6, run 1, dose range 2); 3.64 µM in test [3] (CXCR6, run 2, dose range 1); 2.03 µM in test [3] (CXCR6, run 2, dose range 2); 7.32 µM in test [4] (CCR6, dose range 1). For the same molecule, the IC50 in test [4] (setting [7]) is 8.49 µM; in test [4] (CCR6, run 2, dose range 1), 9.67 µM.

Turning to `O=C(Nc1nc(-c2ccccn2)cs1)c1cc(Cl)ccc1[N+](=O)[O-]`, the IC50 in test [1] (dose range 1) is > 80 µM (inactive); in test [1] (setting [5]) it was more than 80 µM; in test [2] (setting [5]), more than 80 µM; in test [2] (run 2, dose range 1) it was more than 80 µM; in test [2] (run 3, dose range 1), more than 80 µM; in test [3] (CXCR6, dose range 1), > 80 µM (inactive). For the same molecule, the IC50 in test [3] (setting [6]) is more than 80 µM; in test [3] (CXCR6, run 2, dose range 1), more than 80 µM; in test [4] (setting [7]), more than 80 µM; in test [4] (CCR6, run 2, dose range 1), more than 80 µM. Further, the inhibition in test [3] was -48.8%.

Regarding `Cc1ccc(-c2oc3ccccc3c(=O)c2O)cc1`, the IC50 in test [1] (dose range 1) is > 80 µM (inactive); in test [1] (setting [5]), more than 80 µM; in test [2] (dose range 1) it was 22.8 µM; in test [2] (setting [5]), 14.7 µM; in test [2] (run 2, dose range 1) it was 12.2 µM; in test [2] (run 3, dose range 1) it was 9.18 µM. Further, the IC50 in test [3] (CXCR6, dose range 1) was 7.44 µM; in test [3] (setting [6]), 6.98 µM; in test [3] (CXCR6, run 2, dose range 1) it was 6.53 µM; in test [4] (setting [7]) it was 9.06 µM; in test [4] (CCR6, run 2, dose range 1), 9.06 µM. In addition, in test [3], the inhibition amounted to 28.7%.

`CN(C)c1nc(=NCc2cccs2)ss1`: the IC50 in test [1] (dose range 1) was > 80 µM (inactive); in test [1] (setting [5]), more than 80 µM; in test [2] (dose range 1) it was 3.71 µM; in test [2] (setting [5]), 3.68 µM; in test [2] (run 2, dose range 1), more than 80 µM; in test [2] (run 3, dose range 1), 3.66 µM. In addition, the half-maximal inhibitory concentration (IC50) in test [3] (CXCR6, dose range 1) is 4.99 µM; in test [3] (setting [6]), 5.43 µM; in test [3] (CXCR6, run 2, dose range 1), 5.86 µM; in test [4] (CCR6, dose range 1), 3.66 µM; in test [4] (setting [7]), 2.37 µM; in test [4] (CCR6, run 2, dose range 1), 1.07 µM. The inhibition in test [3] amounted to 53%.

On to `CC1(C)CC(=O)C2=C(C1)OC1=C(C(=O)CC(C)(C)C1)C2c1ccc(O)cc1O`, for which the IC50 in test [1] (dose range 1) was > 80 µM (inactive); in test [1] (setting [5]) it was more than 80 µM; in test [2] (dose range 1) it was 11.2 µM; in test [2] (setting [5]) it was 10.6 µM; in test [2] (run 2, dose range 1) it was 8.84 µM; in test [2] (run 3, dose range 1), 11.7 µM. Besides, the IC50 in test [3] (CXCR6, dose range 1) was 10.3 µM; in test [3] (setting [6]), 9.86 µM; in test [3] (CXCR6, run 1, dose range 2), 9.08 µM; in test [3] (CXCR6, run 2, dose range 1), 9.24 µM; in test [3] (CXCR6, run 2, dose range 2) it was 10.8 µM; in test [4] (CCR6, dose range 1), 4.66 µM. Besides, the IC50 amounted to 5.44 µM in test [4] (setting [7]) and 6.22 µM in test [4] (CCR6, run 2, dose range 1).

For the origin of these results see PubChem BioAssay AID624129 (Sanford-Burnham Center for Chemical Genomics, 2012).
